Data on 20 compounds can be found in US20220395496A1 (Hoffmann-La Roche Inc., priority 2019, published 2022).

Each structure is given as a SMILES string.

This assay addresses T1, human TLR7 (Homo sapiens, UniProt Q9NYK1).
T1 sequence (Q9NYK1 27-1049): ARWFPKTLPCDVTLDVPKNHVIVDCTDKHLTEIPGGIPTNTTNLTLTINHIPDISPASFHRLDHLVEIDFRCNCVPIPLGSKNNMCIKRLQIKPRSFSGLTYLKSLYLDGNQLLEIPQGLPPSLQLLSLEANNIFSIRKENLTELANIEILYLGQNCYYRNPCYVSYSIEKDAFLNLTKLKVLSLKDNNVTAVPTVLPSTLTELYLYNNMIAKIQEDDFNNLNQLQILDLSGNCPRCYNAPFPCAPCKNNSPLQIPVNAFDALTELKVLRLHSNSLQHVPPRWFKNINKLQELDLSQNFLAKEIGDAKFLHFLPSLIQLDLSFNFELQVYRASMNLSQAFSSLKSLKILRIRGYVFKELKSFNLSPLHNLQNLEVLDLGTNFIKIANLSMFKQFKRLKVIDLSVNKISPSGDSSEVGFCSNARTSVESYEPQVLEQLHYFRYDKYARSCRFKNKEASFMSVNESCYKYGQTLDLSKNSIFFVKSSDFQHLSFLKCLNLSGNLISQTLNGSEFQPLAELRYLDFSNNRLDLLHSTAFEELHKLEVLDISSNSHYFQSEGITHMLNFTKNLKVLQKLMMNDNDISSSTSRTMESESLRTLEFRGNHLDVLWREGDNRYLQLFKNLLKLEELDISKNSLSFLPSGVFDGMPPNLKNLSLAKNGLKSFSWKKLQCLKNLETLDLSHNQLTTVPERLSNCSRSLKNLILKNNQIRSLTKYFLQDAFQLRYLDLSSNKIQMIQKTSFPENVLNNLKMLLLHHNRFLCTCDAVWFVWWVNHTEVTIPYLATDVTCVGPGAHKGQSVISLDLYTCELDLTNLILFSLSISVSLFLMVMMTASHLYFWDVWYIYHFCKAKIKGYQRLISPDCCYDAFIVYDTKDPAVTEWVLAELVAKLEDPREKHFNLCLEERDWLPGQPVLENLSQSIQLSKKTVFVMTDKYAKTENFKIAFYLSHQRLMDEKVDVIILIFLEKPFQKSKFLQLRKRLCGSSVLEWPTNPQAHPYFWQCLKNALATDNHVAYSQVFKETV
In words: HEK293-Blue-hTLR-7 cells assay (SEAP reporter, R848 stimulation). It is filed as cell-based. The conditions noted are these: HEK293-Blue-hTLR7 cells, R848, 20 hrs; lowest tested concentration 0.0032. The method, then:
The following tests were carried out in order to determine the activity of the compounds of this invention in HEK293-Blue-hTLR-7/8/9 cells assay.
HEK293-Blue-hTLR-7 Cells Assay:
A stable HEK293-Blue-hTLR-7 cell line was purchased from InvivoGen (Cat. #: hkb-htlr7, San Diego, Calif., USA). These cells were originally designed for studying the stimulation of human TLR7 by monitoring the activation of NF-κB. A SEAP (secreted embryonic alkaline phosphatase) reporter gene was placed under the control of the IFN-β minimal promoter fused to five NF-κB and AP-1-binding sites. The SEAP was induced by activating NF-κB and AP-1 via stimulating HEK-Blue hTLR7 cells with TLR7 ligands. Therefore the reporter expression was declined by TLR7 antagonist under the stimulation of a ligand, such as R848 (Resiquimod), for incubation of 20 hrs. The cell culture supernatant SEAP reporter activity was determined using QUANTI-Blue™ kit (Cat. #: rep-qb1, Invivogen, San Diego, Calif., USA) at a wavelength of 640 nm, a detection medium that turns purple or blue in the presence of alkaline phosphatase.
HEK293-Blue-hTLR7 cells were incubated at a density of 250,000˜450,000 cells/mL in a volume of 170 μL in a 96-well plate in Dulbecco's Modified Eagle's medium (DMEM) containing 4.5 g/L glucose, 50 U/mL penicillin, […], […], 2 mM L-glutamine, 10% (v/v) heat-inactivated fetal bovine serum with addition of 20 μL test compound in a serial dilution in the presence of final DMSO at 1% and 10 μL of 20 uM R848 in above DMEM, perform incubation under 37° C. in a CO2 incubator for 20 hrs. Then 20 μL of the supernatant from each well was incubated with 180 μL Quanti-blue substrate solution at 37° C. for 2 hrs and the absorbance was read at 620-655 nm using a spectrophotometer. The signalling pathway that TLR7 activation leads to downstream NF-κB activation has been widely accepted, and therefore similar reporter assay was modified for evaluating TLR7 antagonist.
As to `C[C@H]1C[C@@H](NCc2ccc3c(c2)CCNC3)CN(c2ccc(C#N)c3ncccc23)C1` [Example 11, 5-[(3S,5R)-3-methyl-5-(1,2,3,4-tetrahydroisoquinolin-6-ylmethylamino)-1-piperidyl]quinoline-8-carbonitrile], half-maximal inhibition (IC50) required 15 nM.

`C[C@H]1C[C@@H](NCc2ccc3c(n2)CCNC3)CN(c2ccc(C#N)c3ncccc23)C1` [Example 30, 5-[(3S,5R)-3-methyl-5-(5,6,7,8-tetrahydro-1,6-naphthyridin-2-ylmethylamino)-1-piperidyl]quinoline-8-carbonitrile] returned an IC50 of 16 nM.

In turn, `C[C@H]1C[C@@H](NCc2ccc(N3CCN(C)CC3)cc2)CN(c2ccc(C#N)c3ncccc23)C1` [Example 7, 5-[(3S,5R)-3-methyl-5-[[4-(4-methylpiperazin-1-yl)phenyl]methylamino]-1-piperidyl]quinoline-8-carbonitrile] returned an IC50 of 16 nM.

The compound `C[C@H]1C[C@@H](NCc2ncc(N3CCNCC3)cn2)CN(c2ccc(C#N)c3ncccc23)C1` [Example 25, 5-[(3S,5R)-3-methyl-5-[(5-piperazin-1-ylpyrimidin-2-yl)methylamino]-1-piperidyl]quinoline-8-carbonitrile] showed an IC50 of 15 nM.

Compound `C[C@H]1C[C@@H](NCc2cnc(N3CCN[C@@H](C)C3)nc2)CN(c2ccc(C#N)c3ncccc23)C1` [Example 29, 5-[(3S,5R)-3-methyl-5-[[2-[(3S)-3-methylpiperazin-1-yl]pyrimidin-5-yl]methylamino]-1-piperidyl]quinoline-8-carbonitrile] yielded an IC50 of 8 nM.

Consider `C[C@H]1C[C@@H](NCc2ccc(N3CCC(N)C3)cc2)CN(c2ccc(C#N)c3ncccc23)C1` (stereo partly drawn) [Example 13, 5-[(3R,5S)-3-[[4-(3-aminopyrrolidin-1-yl)phenyl]methylamino]-5-methyl-1-piperidyl]quinoline-8-carbonitrile], for which half-maximal inhibition (IC50) was put at 19 nM.

For the compound `C[C@H]1C[C@@H](NCc2cnc(N3CCN[C@H](C)C3)nc2)CN(c2ccc(C#N)c3ncccc23)C1` [Example 28, 5-[(3S,5R)-3-methyl-5-[[2-[(3R)-3-methylpiperazin-1-yl]pyrimidin-5-yl]methylamino]-1-piperidyl]quinoline-8-carbonitrile], the IC50 amounted to 12 nM.

Compound `C[C@H]1C[C@@H](NCc2ccc(N3CCNCC3)cc2)CN(c2ccc(C#N)c3nccnc23)C1` [Example 3, 8-[(3S,5R)-3-methyl-5-[(4-piperazin-1-ylphenyl)methylamino]-1-piperidyl]quinoxaline-5-carbonitrile] displayed an IC50 of 30 nM.

In the case of `Cc1cc(-c2ccc(CN[C@@H]3C[C@H](C)CN(c4ccc(C#N)c5ncccc45)C3)cc2)cc(C)n1` [Example 15, 5-[(3R,5S)-3-[[4-(2,6-dimethyl-4-pyridyl)phenyl]methylamino]-5-methyl-1-piperidyl]quinoline-8-carbonitrile], the IC50 is 84 nM.

`C[C@H]1C[C@@H](N(C)Cc2ccc(N3CCNCC3)cc2)CN(c2ccc(C#N)c3ncccc23)C1` [Example 9, 5-[(3S,5R)-3-methyl-5-[methyl-[(4-piperazin-1-ylphenyl)methyl]amino]-1-piperidyl]quinoline-8-carbonitrile] came in with a concentration for half-maximal inhibition (IC50) of 15 nM.

Consider `C[C@H]1C[C@@H](NCc2ccc(N3CCNCC3)cc2)CN(c2ccc(Cl)c3ncccc23)C1` [Example 22, (3R,5S)-1-(8-chloro-5-quinolyl)-5-methyl-N-[(4-piperazin-1-ylphenyl)methyl]piperidin-3-amine], for which inhibition was half-maximal at 23 nM (IC50).

In turn, `C[C@H]1C[C@@H](NCc2ccc(N3CCN(C)CC3)cn2)CN(c2ccc(C#N)c3ncsc23)C1` [Example 18, 7-[(3S,5R)-3-methyl-5-[[5-(4-methylpiperazin-1-yl)-2-pyridyl]methylamino]-1-piperidyl]-1,3-benzothiazole-4-carbonitrile] yielded a half-maximal inhibitory concentration (IC50) of 11 nM.

In turn, `C[C@H]1C[C@@H](NCc2cnc(N3CCNCC3)cn2)CN(c2ccc(C#N)c3ncccc23)C1` [Example 31, 5-[(3S,5R)-3-methyl-5-[(5-piperazin-1-ylpyrazin-2-yl)methylamino]-1-piperidyl]quinoline-8-carbonitrile] came in with an IC50 of at most 3 nM.

As for `C[C@H]1C[C@@H](N2CCc3cc(N4CCNCC4)ccc3C2)CN(c2ccc(C#N)c3ncccc23)C1` (relative stereo) [Example 24, 5-[cis-3-methyl-5-(6-piperazin-1-yl-3,4-dihydro-1H-isoquinolin-2-yl)-1-piperidyl]quinoline-8-carbonitrile], the IC50 was found to be 52 nM.

`CC(N[C@@H]1C[C@H](C)CN(c2ccc(C#N)c3ncccc23)C1)c1ccc(N2CCNCC2)cc1` (stereo partly drawn) [Example 26, 5-[(3S,5R)-3-methyl-5-[1-(4-piperazin-1-ylphenyl)ethylamino]-1-piperidyl]quinoline-8-carbonitrile] showed an IC50 of 91 nM.

In the case of `C[C@H]1C[C@@H](NCc2ccc(N3CCNCC3)cn2)CN(c2ccc(C#N)c3ncccc23)C1` [Example 5, 5-[(3S,5R)-3-methyl-5-[(5-piperazin-1-yl-2-pyridyl)methylamino]-1-piperidyl]quinoline-8-carbonitrile], half-maximal inhibition (IC50) required 17 nM.

As for `C[C@H]1C[C@@H](NCc2cccc(N3CCNCC3)c2)CN(c2ccc(C#N)c3ncccc23)C1` [Example 8, 5-[(3S,5R)-3-methyl-5-[(3-piperazin-1-ylphenyl)methylamino]-1-piperidyl]quinoline-8-carbonitrile], inhibition was half-maximal at 39 nM (IC50).

The compound `C[C@H]1C[C@@H](NCc2cccc(N3CCN(C)CC3)c2)CN(c2ccc(C#N)c3ncccc23)C1` [Example 6, 5-[(3S,5R)-3-methyl-5-[[3-(4-methylpiperazin-1-yl)phenyl]methylamino]-1-piperidyl]quinoline-8-carbonitrile] showed an IC50 of 42 nM.

`C[C@H]1C[C@@H](NCc2cnc(N3CCN(C)CC3)nc2)CN(c2ccc(C#N)c3ncccc23)C1` [Example 16, 5-[(3S,5R)-3-methyl-5-[[2-(4-methylpiperazin-1-yl)pyrimidin-5-yl]methylamino]-1-piperidyl]quinoline-8-carbonitrile] showed an IC50 of 11 nM.

`C[C@H]1C[C@@H](NCc2ccc(N3CCNCC3)cc2F)CN(c2ccc(C#N)c3ncccc23)C1` [Example 4, 5-[(3R,58)-3-[(2-fluoro-4-piperazin-1-yl-phenyl)methylamino]-5-methyl-1-piperidyl]quinoline-8-carbonitrile] displayed a 50% inhibitory concentration (IC50) of 13 nM.
